# In patent publication US20160237012A1, “ANTICANCER AGENTS AND PROCESS OF MAKING THEREOF” (Golden Biotechnology Corporation, priority 2015, published 2016):
# Key:
# Hep3B = test: MTT cell viability assay, Hep3B; type: cell-based; conditions: 48 hours, human hepatoma Hep3B, average of at least six independent experiments
# Description: (§1) Human hepatoma (HepG2 and Hep 3B) and human breast cancer (MCF-7) cell lines were obtained from American Type Culture Collection (Rockville, Md., USA). HepG2 and Hep 3B cells were cultured in MEM alpha medium (Invitrogen/Gibco BRL, Grand Island, N.Y., USA) and MCF-7 cells were cultured in DMEM medium (Invitrogen/Gibco BRL). All cells were cultured at 37° C. in 5% CO2 in culture media supplemented with 10% fetal bovine serum (Invitrogen/Gibco BRL) and 100 U/ml streptomycin and penicillin (Invitrogen/Gibco BRL). For treatment, cells were seeded in six-well plates at 6.25×10^5 cells/well. On the following day, the media were changed to serum-free and the cells were serum-starved for 24 h. […]
# (§2) The MTT (3-(4, 5-dimethylthiazol-2-yl)-2,5-diphenyl tetrazolium bromide) cell viability assay is a colorimetric assay system, which measures the reduction of a tetrazolium component (MTT) into an insoluble blue/purple colored formazan product by succinate tetrazolium reductase in mitochondria of viable cells. The absorbance of the complex is read spectrophotometrically and is directly proportional to the number of live or viable cells. […]
# (§3) To each of the 96 well plates seeded at a density of 5,000 cells per well, a known concentration of test compounds were added individually. […] The IC50 value was determined by a nonlinear curve fitting program using the GraphPad prism software v 4.01.
# HepG2 = test: MTT cell viability assay, HepG2; type: cell-based; conditions: 48 hours, human hepatoma HepG2, average of at least six independent experiments
# Description: as §1, §2, §3
# MCF-7 = test: MTT cell viability assay, MCF-7; type: cell-based; conditions: MCF7, 48 hours, human breast cancer MCF-7, average of at least six independent experiments
# Description: as §1, §2, §3
# Hep 3B = conditions: based on the prior published result; read-out: IC50 against Hep 3B; cited from earlier work
IC50 (Hep3B) [nM],IC50 (HepG2) [nM],IC50 (MCF-7) [nM],Structure (SMILES),IC50 (Hep 3B) [nM]
325,948,519,CC(C)=CCC/C(C)=C/CC/C(C)=C/Cc1c(O)ccc(O)c1C [Compound 1],
,,,"COC1=C(OC)C(O)C(CC=C(C)CCC=C(C)CCC=C(C)C)C(C)C1=O (stereo not shown) [4-hydroxy-2,3-dimethoxy-6-methyl-5-(3,7,11-trimethyldodeca-2,6,10-trienyl)cyclohex-2-enone]",> 30000
4.3,156,108,CC(C)=CCC/C(C)=C/CC/C(C)=C/CC1C(O)C=CC(=O)C1C (stereo not shown) [Compound 3],
